For one series, the system named is RD cells. Nature of the series: Toxicity test. The format is cell-based. The settings on record: 3-4 days, crystal violet OD570nm. The procedure:
In this embodiment, rhabdomyosarcoma (RD) cells obtained from the Virology Lab of Chang Gung Memorial Hospital are cultured in DMEM (Gibco) containing 10% fetal bovine serum and placed in 5% CO2, 37° C. incubator. In successive culture, the cells are rinsed twice with 1× PBS and then added with proper amount of 0.25% trypsin-EDTA (Gibco) for cell treatment. After the cells drop off from the surface of culture dish, add DMBM medium containing 10% fetal bovine serum to disperse the cells evenly in the culture dishes. Place the dishes into 5% CO2, 37° C. incubator to continue the culturing.
In this embodiment, cultured cells from Embodiment 3 are cultured in 96-well plate. After the cells are mixed with the tested compound for one hour, add DMEM containing 2% fetal bovine serum, and place the medium in 5% CO2, 35° C. incubator for 3–4 days. To read the test result, add 5% formalin to fixate for 1–2 hours and dye with 0.1% crystal violet (J. T. Baker) for 2–3 minutes. Rinse with water and measure OD570nm values.

In a further series the test system is enterovirus type 71. The series is described as follows: Neutralization test. The format is cell-based, enterovirus 71/Tw/2231/98. The settings on record: concentration of 10 mg/ml; RD cells, crystal violet OD570nm. How it is done: In this embodiment, enterovirus 71/Tw/2231/98 obtained from Virology Lab of Chang Gung Memorial Hospital is diluted with fetal bovine serum free culture medium. Culture the RD cells in DMEM containing 10% fetal bovine serum. When the cells are 90% cultured, wash with 1×PBC once and add the aforesaid diluted virus fluid into the culture medium. Place the medium in the 5% CO2, 35° C. incubator for inoculation for one hour and then add DMEM containing 2% fetal bovine serum. Place the medium in 5% CO2, 35° C. incubator. When over 95% of the cells become round and drop off, collect the supernatant. After centrifuge, freezing and thawing, refrigerate the virus supernatant under −80° C.
In this embodiment, cultured cells from Embodiment 3 are cultured in 96-well plate. After mixing fixed-quantity of virus fluid with the tested compound, add in culture medium for inoculation for one hour, and then add in DMEM containing 2% fetal bovine serum. Place the medium in 5% CO2, 35° C. incubator for 3–4 days. To read the test result, add 5% formalin to fixate for 1–2 hours and dye with 0.1% crystal violet for 2–3 minutes. Rinse with water and measure OD570nm values.

As usually defined, the LC50 is the concentration that kills 50% of the test population. Read a low LC50 as a more lethal substance. `C[n+]1ccn(CC(O)Cn2cc[n+](C)c2)c1.[Br-].[Br-]` [dibromo 1,1′-glyceryl-bis (3-methyl-1H-imidazole)]: the LC50 with RD cells turned out to be 8400 µg/mL. In the series on enterovirus type 71, the “inhibitory effect on enterovirus type 71” value came out at 32%.

With `OC(C[n+]1ccccc1)C[n+]1ccccc1.[Br-].[Br-]` [dibromo 1,1′-glyceryl-bispyridine], in the series with RD cells, the LC50 was found to be 9200 µg/mL. Moreover, the “inhibitory effect on enterovirus type 71” value with enterovirus type 71 was 30%.

The values are drawn from patent US7045536B2, “Compound having anti-viral activity” (Industrial Technology Research Institute, priority 2003, dated 2006).
